Data on 28 compounds can be found in US8445501B2, “Substituted 7-carboxamido-pyrrolo[3,2-d]pyrimidines” (Takeda GmbH, priority 2008, dated 2013).

The structures appear in SMILES notation. pIC50: −log10 of the molar value.

The assay concerns the target T1, human PDE5 (Homo sapiens, UniProt O76074).
T1 construct: from tissue; host or cells: platelets from fresh blood of human donors (lysate, 10,000 g supernatant)
Put plainly: Inhibition of the type 5 phosphodiesterase (PDE5) activity, modified SPA test with platelet lysate. The class given is biochemical. To be noted: PDE5 from human platelet lysate, 0.5 μM cGMP. The essentials:
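Human platelet lysate (10,000 g supernatant) as PDE5 source in SPA with 0.5 μM cGMP plus [3H]cGMP tracer, pH 7.4, 5 mM Mg2+, 1 μM motapizone and 10 nM PDE2 inhibitor; 10–20% conversion. 5 min preincubation, 15 min at 37 °C, stopped with SPA beads/IBMX. IC50 by non-linear regression.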
For `CCOC(=O)N[C@H]1CC[C@H](NC(=O)c2c[nH]c3c(-c4ccc(F)cc4OCC4CC4)ncnc23)CC1` [Example 80, trans-(4-{[4-(2-Cyclopropylmethoxy-4-fluoro-phenyl)-5H-pyrrolo[3,2-d]pyrimidine-7-carbonyl]-amino}-cyclohexyl)-carbamic acid ethyl ester], the pIC50 (commonly the IC50 on a negative log10 scale, so that one unit is a factor of ten) was 8.85. Regarding `CC(=O)N1CCC(NC(=O)c2c[nH]c3c(-c4ccc(F)cc4OCC4CC4)ncnc23)CC1` [Example 81, 4-(2-Cyclopropylmethoxy-4-fluoro-phenyl)-5H-pyrrolo[3,2-d]pyrimidine-7-carboxylic acid (1-acetyl-piperidin-4-yl)-amide], the pIC50 is 8.83. As to `CCC(=O)N1CCC(NC(=O)c2c[nH]c3c(-c4ccc(F)cc4OCC4CC4)ncnc23)CC1` [Example 82, 4-(2-Cyclopropylmethoxy-4-fluoro-phenyl)-5H-pyrrolo[3,2-d]pyrimidine-7-carboxylic acid (1-propionyl-piperidin-4-yl)-amide], the pIC50 was 8.96. `COCC(=O)N1CCC(NC(=O)c2c[nH]c3c(-c4ccc(F)cc4OCC4CC4)ncnc23)CC1` [Example 83, 4-(2-Cyclopropylmethoxy-4-fluoro-phenyl)-5H-pyrrolo[3,2-d]pyrimidine-7-carboxylic acid [1-(2-methoxy-acetyl)piperidin-4-yl]-amide] had a pIC50 of 8.29.

On to `CC(=O)N1CCC(NC(=O)c2c[nH]c3c(-c4cc(F)ccc4OCC4CC4)ncnc23)CC1` [Example 84, 4-(2-Cyclopropylmethoxy-5-fluoro-phenyl)-5H-pyrrolo[3,2-d]pyrimidine-7-carboxylic acid (1-acetyl-piperidin-4-yl)-amide], for which the pIC50 is 8.53. `CCC(=O)N1CCC(NC(=O)c2c[nH]c3c(-c4cc(F)ccc4OCC4CC4)ncnc23)CC1` [Example 85, 4-(2-Cyclopropylmethoxy-5-fluoro-phenyl)-5H-pyrrolo[3,2-d]pyrimidine-7-carboxylic acid (1-propionyl-piperidin-4-yl)-amide]: the negative-log IC50 (pIC50) was 8.80.

The compound `COCC(=O)N1CCC(NC(=O)c2c[nH]c3c(-c4cc(F)ccc4OCC4CC4)ncnc23)CC1` [Example 86, 4-(2-Cyclopropylmethoxy-5-fluoro-phenyl)-5H-pyrrolo[3,2-d]pyrimidine-7-carboxylic acid [1-(2-methoxy-acetyl)piperidin-4-yl]-amide] showed a pIC50 of 8.40. Against the preceding compound, the pIC50 is 0.40 log units lower.

`CC(=O)N[C@H]1CC[C@H](NC(=O)c2c[nH]c3c(-c4cc(F)ccc4OCC4CC4)ncnc23)CC1` [Example 87, trans-4-(2-Cyclopropylmethoxy-5-fluoro-phenyl)-5H-pyrrolo[3,2-d]pyrimidine-7-carboxylic acid (4-acetylamino-cyclohexyl)-amide] showed a pIC50 of 8.95. For `CCC(=O)N[C@H]1CC[C@H](NC(=O)c2c[nH]c3c(-c4cc(F)ccc4OCC4CC4)ncnc23)CC1` [Example 88, trans-4-(2-Cyclopropylmethoxy-5-fluoro-phenyl)-5H-pyrrolo[3,2-d]pyrimidine-7-carboxylic acid (4-propionylamino-cyclohexyl)-amide] the value was 8.78; for `COCC(=O)N[C@H]1CC[C@H](NC(=O)c2c[nH]c3c(-c4cc(F)ccc4OCC4CC4)ncnc23)CC1` [Example 89, trans-4-(2-Cyclopropylmethoxy-5-fluoro-phenyl)-5H-pyrrolo[3,2-d]pyrimidine-7-carboxylic acid [4-(2-methoxy-acetylamino)-cyclohexyl]-amide], 8.89; for `CC(=O)N[C@H]1CC[C@H](NC(=O)c2c[nH]c3c(-c4ccccc4OCC4CC4)ncnc23)CC1` [Example 90, trans-4-(2-Cyclopropylmethoxy-phenyl)-5H-pyrrolo[3,2-d]pyrimidine-7-carboxylic acid (4-acetylamino-cyclohexyl)-amide], 8.25. The compound `COCC(=O)N[C@H]1CC[C@H](NC(=O)c2c[nH]c3c(-c4ccccc4OCC4CC4)ncnc23)CC1` [Example 91, trans-4-(2-Cyclopropylmethoxy-phenyl)-5H-pyrrolo[3,2-d]pyrimidine-7-carboxylic acid [4-(2-methoxy-acetylamino)-cyclohexyl]-amide] showed a pIC50 of 8.20. For `CCOC(=O)N[C@H]1CC[C@H](NC(=O)c2c[nH]c3c(-c4ccccc4OCC4CC4)ncnc23)CC1` [Example 92, trans-(4-{[4-(2-Cyclopropylmethoxy-phenyl)-5H-pyrrolo[3,2-d]pyrimidine-7-carbonyl]-amino}-cyclohexyl)-carbamic acid ethyl ester] the value was 8.47.

With `O=C(N[C@H]1CC[C@H](NC(=O)C2CC2)CC1)c1c[nH]c2c(-c3ccccc3OCC3CC3)ncnc12` [Example 93, trans-4-(2-Cyclopropylmethoxy-phenyl)-5H-pyrrolo[3,2-d]pyrimidine-7-carboxylic acid [4-(cyclopropanecarbonyl-amino)cyclohexyl]-amide], the pIC50 is 8.60. With `CC(=O)N1CCC(NC(=O)c2c[nH]c3c(-c4ccccc4OCC4CC4)ncnc23)CC1` [Example 94, 4-(2-Cyclopropylmethoxy-phenyl)-5H-pyrrolo[3,2-d]pyrimidine-7-carboxylic acid (1-acetyl-piperidin-4-yl)-amide] the figure was 8.06. For `CCOC(=O)N1CCC(NC(=O)c2c[nH]c3c(-c4ccccc4OCC4CC4)ncnc23)CC1` [Example 95, 4-{[4-(2-Cyclopropylmethoxy-phenyl)-5H-pyrrolo[3,2-d]pyrimidine-7-carbonyl]-amino}-piperidine-1-carboxylic acid ethyl ester] the value was 8.48. Regarding `O=C(NC1CCN(C(=O)C2CC2)CC1)c1c[nH]c2c(-c3ccccc3OCC3CC3)ncnc12` [Example 96, 4-(2-Cyclopropylmethoxy-phenyl)-5H-pyrrolo[3,2-d]pyrimidine-7-carboxylic acid (1-cyclopropanecarbonyl-piperidin-4-yl)-amide], the pIC50 was 8.67.

With `CCC(=O)N1CCC(NC(=O)c2c[nH]c3c(-c4cc(OC)c(F)cc4OCC4CC4)ncnc23)CC1` [Example 97, 4-(2-Cyclopropylmethoxy-4-fluoro-5-methoxy-phenyl)-5H-pyrrolo[3,2-d]pyrimidine-7-carboxylic acid (1-propionyl-piperidin-4-yl)-amide], the pIC50 is 9.93. `COCC(=O)N1CCC(NC(=O)c2c[nH]c3c(-c4cc(OC)c(F)cc4OCC4CC4)ncnc23)CC1` [Example 98, 4-(2-Cyclopropylmethoxy-4-fluoro-5-methoxy-phenyl)-5H-pyrrolo[3,2-d]pyrimidine-7-carboxylic acid [1-(2-methoxy-ethanoyl)-piperidin-4-yl]-amide] gave a pIC50 of 9.66. Consider `COc1cc(-c2ncnc3c(C(=O)NC4CCN(C(C)=O)CC4)c[nH]c23)c(OCC2CC2)cc1F` [Example 99, 4-(2-Cyclopropylmethoxy-4-fluoro-5-methoxy-phenyl)-5H-pyrrolo[3,2-d]pyrimidine-7-carboxylic acid (1-acetyl-piperidin-4-yl)-amide], for which the pIC50 was 9.75.

With `COc1cc(-c2ncnc3c(C(=O)N[C@@H]4CCCN(C(C)=O)C4)c[nH]c23)c(OCC2CC2)cc1F` [Example 100, 4-(2-Cyclopropylmethoxy-4-fluoro-5-methoxy-phenyl)-5H-pyrrolo[3,2-d]pyrimidine-7-carboxylic acid ((R)-1-acetyl-piperidin-3-yl)-amide], the pIC50 was 9.90. This pIC50 and that of the compound before are within 0.2 log units of each other. For `CCC(=O)N1CCC[C@@H](NC(=O)c2c[nH]c3c(-c4cc(OC)c(F)cc4OCC4CC4)ncnc23)C1` [Example 101, 4-(2-Cyclopropylmethoxy-4-fluoro-5-methoxy-phenyl)-5H-pyrrolo[3,2-d]pyrimidine-7-carboxylic acid ((R)-1-propionyl-piperidin-3-yl)-amide], the pIC50 was 9.79. Turning to `COCC(=O)N1CCC[C@@H](NC(=O)c2c[nH]c3c(-c4cc(OC)c(F)cc4OCC4CC4)ncnc23)C1` [Example 102, 4-(2-Cyclopropylmethoxy-4-fluoro-5-methoxy-phenyl)-5H-pyrrolo[3,2-d]pyrimidine-7-carboxylic acid [(R)-1-(2-methoxy-acetyl)piperidin-3-yl]-amide], the pIC50 is 9.94. This pIC50 and that of the compound before are within 0.2 log units of each other. Take `CCC(=O)N1CC[C@@H](NC(=O)c2c[nH]c3c(-c4cc(OC)c(F)cc4OCC4CC4)ncnc23)C1` [Example 104, 4-(2-Cyclopropylmethoxy-4-fluoro-5-methoxy-phenyl)-5H-pyrrolo[3,2-d]pyrimidine-7-carboxylic acid ((R)-1-propionyl-pyrrolidin-3-yl)-amide]: the pIC50 was 9.63. As for `COCC(=O)N1CC[C@@H](NC(=O)c2c[nH]c3c(-c4cc(OC)c(F)cc4OCC4CC4)ncnc23)C1` [Example 105, 4-(2-Cyclopropylmethoxy-4-fluoro-5-methoxy-phenyl)-5H-pyrrolo[3,2-d]pyrimidine-7-carboxylic acid [(R)-1-(2-methoxy-acetyl)-pyrrolidin-3-yl]amide], the pIC50 is 9.43. The compound `COc1cc(OCC2CC2)c(-c2ncnc3c(C(=O)N[C@H]4CC[C@H](NC(C)=O)CC4)c[nH]c23)cc1F` [Example 106, trans-4-(2-Cyclopropylmethoxy-5-fluoro-4-methoxy-phenyl)-5H-pyrrolo[3,2-d]pyrimidine-7-carboxylic acid (4-acetylamino-cyclohexyl)-amide] had a pIC50 of 9.05. With `COCC(=O)N[C@H]1CC[C@H](NC(=O)c2c[nH]c3c(-c4cc(F)c(OC)cc4OCC4CC4)ncnc23)CC1` [Example 107, trans-4-(2-Cyclopropylmethoxy-5-fluoro-4-methoxy-phenyl)-5H-pyrrolo[3,2-d]pyrimidine-7-carboxylic acid [4-(2-methoxy-acetylamino)-cyclohexyl]-amide] the figure was 9.27; with `COc1cc(OCC2CC2)c(-c2ncnc3c(C(=O)NC4CCN(C(C)=O)CC4)c[nH]c23)cc1F` [Example 108, 4-(2-Cyclopropylmethoxy-5-fluoro-4-methoxy-phenyl)-5H-pyrrolo[3,2-d]pyrimidine-7-carboxylic acid (1-acetyl-piperidin-4-yl)-amide], 9.18.
